Laboratory results from US20200361987A1, “DEUTERATED TETRAPEPTIDES THAT TARGET MITOCHONDRIA” (STEALTH BIOTHERAPEUTICS CORP., priority 2017, published 2020).
Values joined by “and” are separate entries in the source; they are usually repeats but may differ in a detail not shown here. Equal values may be shown once. Square brackets hold non-standard residues; d marks the D form. Peptide text beside a SMILES is read from it. Dmt = Cc1cc(O)cc(C)c1C[C@H](N)C(=O)O

How the values were obtained:
[1] = Rat PK study, intravenous administration, plasma; format: in vivo; details: intravenous 1 mg/kg; for AUC(0-inf): read-out: AUCINF_obs; for clearance: read-out: Cl_obs; for Vd: read-out: Vss_obs
Procedure: General Methods and Procedures of Rat PK Studies (Aptuit)
All test formulations will be prepared on the day of administration prior to dosing and used as soon as possible. All test formulations will be stored at room temperature, prior to administration.
The dose formulation(s) will be prepared and administered by volume. The target dose levels are detailed below:
Test substances discrete doses will be formulated in saline water at the final concentration of 0.5 mg/mL and intravenously administered at the volume of 2 mL/kg to rats.
Actual body weights of animals will be recorded on the day of dose administration. Doses volumes will be adjusted taking into account the weight of the animal at the time of dose administration. Doses formulations will be administered intravenously via tail vein (2 mL/kg); an aliquot of each dose formulation will be taken before administration. The actual dose received by each animal will be registered and residual volumes discarded.
After administration, serial blood samples will be collected from the lateral tail vein of each rat, then animals will be sacrificed humanely. Approximately 300 μL of Blood will be collected into EDTA tubes. Then exactly 240 μL of blood will be transferred into a micronic tube containing 10 μL of a solution (30 mg/mL NaF and 239 mg/mL Pefabloc) at each of the following time points post-dose (actual times will be recorded): 0.083, 0.25, 0.5, 1, 2, 4 and 8 hours after dosing. All blood samples will be thoroughly but gently mixed following collection and placed on wet ice. Blood will be centrifuged (3000 g for 10 min at approximately 4° C.) as soon as possible and two 50 μL aliquots of plasma will be transferred into micronic tubes. Residual blood will be discarded.
Plasma samples will be frozen at approximately −80° C. as soon as possible after preparation and stored until analysis.
Plasma samples will be assayed using a method based on protein precipitation with methanol followed by HPLC/MS-MS analysis with an optimized analytical method. Calibration standards (CS) and Quality control samples (QC) will be prepared on the day of analysis. Study samples, CS, QC and blanks will be spiked with an internal standard (IS) to improve the precision of the assay. Study samples will be analyzed together with CS, QC and blank samples (including also double blanks). From the calibration curve, the linear range of the analytical method will be determined and lower and upper limits of quantitation specified. Details of the conditions and methods used will be included in the report. All dosing solutions will be checked for accuracy and actual concentration will be reported.
The results for test substances in plasma will be subject to non-compartmental pharmacokinetic analysis using Phoenix WinNonlin 6.3 (see Section 8). The following parameters will be reported:
Calculated concentration of test item in the corresponding formulation (expressed as mg/mL). Dose levels (expressed as mg/kg). Actual collection times (expressed as hh:mm). Plasma concentrations (expressed as ng/mL). Quantitative information about 2 metabolites in Plasma. PK parameters (iv: Cmax, AUClast, AUCinf, CL, Vss, t1/2, if applicable; Abnormal clinical signs and relevant findings, if any.

[2] = test system: CL:DOPC 1:3 liposomes (cardiolipin); test: Isothermal titration calorimetry (ITC) of test compound into CL:DOPC liposomes; format: binding; details: 20 mM HEPES pH 7.4
Procedure: Example 18: Isothermal Titration Calorimetry (ITC) Study
1. Preparation of CL:DOPC 1:3 Liposomes (CL Concentration 0.1 mM)
146 μl of cardiolipin solution (5.1 mg/mL in EtOH, Sigma-Aldrich, C1649-10MG) were mixed with 1.2 mg 0.05 mg (exact weight, see Table 1) of DOPC (Avanti Polar Lipids, 850375P) and 20 mM HEPES buffer pH=7.4. Resulting solution was diluted up to 5 mL with the same buffer, vortexed for 2 min and sonicated in bath sonicator for 30 min at room temperature. Liposomes were produced by manual extrusion (Avestin, The LiposoFast-Stabilizer with a LiposoFast-Basic) through a 100 nm filter (Avestin, PC membranes 0.1 m or Avanti Polar Lipids, PC membranes 0.1 μm, 610005). Extrusion was performed for 21 times. EtOH concentration in sample is 2.9%. Obtained CL:DOPC solutions were tested for homogeneity by DLS (Malvern Instruments Ltd, Zetasizer Nano ZSP, instrument with Malvern Instruments Ltd software 7.11) using the following parameters—medium: water; refractive index: 1.33; viscosity: 0.8872 cP; temperature: 25° C.; nanoparticles: liposomes; refractive index of materials: 1.60; detection angle of 173°, a wavelength of 633 nm. All measurements were performed in triplicate.
2. Preparation of Test Compound Solutions
2 mg or 14 mg (exact weight, see Table 1) of test compound were dissolved in 20 mM HEPES buffer (pH=7.4, contains 2,9% (V/V) of EtOH) to obtain 0.7 mM concentration (for exact volumes see Table 3). Obtained solution was vortexed for 2 min.
3. ITC Titration Experiments
Instrument cell was washed and purged with ≈100 μL of CL:DOPC liposomes solution. After washing cell was filled with CL:DOPC liposomes solution. Injection syringe was loaded with test compound solution. Injection volumes were set to values shown in Table 2 and DP values were set to 2.5 μcal/sec in all experiments. Time between injections—105 seconds. Titration of each compound is performed in triplicate, results are reported as mean value±standard deviation (see Table 4).

SMILES | AUC(0-t) [1] | Cmax [1] | Tmax [1] | half-life [1] | AUC(0-inf) [1] | clearance [1] | Vd [1] | Ka ([2]; Average of replicates) | Kd ([2]; Average of replicates) | Ka ([2]; single replicate titration) | Kd ([2]; single replicate titration)
N=C(N)NCCC[C@@H](NC(=O)[C@@H](N)Cc1ccccc1)C(=O)N[C@@H](Cc1ccccc1)C(=O)N[C@@H](CCCCN)C(N)=O [Example 1 non-deuterated, Phe-D-Arg-Phe-Lys-NH2, reference compound] (H-F[dR]FK-NH2) | 1950 ng·h/mL | 3200 ng/mL | 4.98 min | 30 min | 1960 ng·h/mL | 8.55 mL/min/kg | 0.27 L/kg | 194000 M⁻¹ | 5.39 µM | 230000 M⁻¹ and 141000 M⁻¹ and 211000 M⁻¹ | 4.35 µM and 7.09 µM and 4.74 µM
[2H]C([2H])(N)C([2H])([2H])C([2H])([2H])C([2H])([2H])[C@H](NC(=O)[C@H](Cc1ccccc1)NC(=O)[C@@H](CCCNC(=N)N)NC(=O)[C@@H](N)Cc1ccccc1)C(N)=O [Example 1, Phe-D-Arg-Phe-(3,3,4,4,5,5,6,6-octadeuterium)-Lys-NH2] | 2300 ng·h/mL | 4300 ng/mL | 4.98 min | 27 min | 2310 ng·h/mL | 7.24 mL/min/kg | 0.21 L/kg | 389000 M⁻¹ | 2.62 µM | 473000 M⁻¹ and 384000 M⁻¹ and 366000 M⁻¹ and 331000 M⁻¹ | 2.11 µM and 2.6 µM and 2.73 µM and 3.02 µM
Cc1cc(O)cc(C)c1C[C@H](NC(=O)[C@H](N)CCCNC(=N)N)C(=O)N[C@@H](CCCCN)C(=O)N[C@@H](Cc1ccccc1)C(N)=O [Example 11 non-deuterated] (H-[dR][Dmt]KF-NH2) | 2120 ng·h/mL | 2930 ng/mL | 4.98 min | 48 min | 2120 ng·h/mL | 7.97 mL/min/kg | 0.29 L/kg | – | – | – | –
[2H]C([2H])(CN)C([2H])([2H])C[C@H](NC(=O)[C@H](Cc1c(C)cc(O)cc1C)NC(=O)[C@H](N)CCCNC(=N)N)C(=O)N[C@@H](Cc1ccccc1)C(N)=O [Example 11, D-Arg-DMT-(4,4,5,5-d4)-Lys-Phe-NH2] | 2920 ng·h/mL | 4680 ng/mL | 4.98 min | 35.3 min | 2940 ng·h/mL | 5.7 mL/min/kg | 0.23 L/kg | – | – | – | –
